Laboratory results taken from US5340925A, “Normal human growth regulatory receptor for TGF-β” (Oncogen, priority 1992, dated 1994).
Like-named read-outs stand apart in the source and are kept apart here.

Tests used:
[1] = tested on: TGF-β receptor on HEPM cells; assay: TGF-β receptor down-regulation in TGF-β1 treated HEPM cells, assessed by radioreceptor assay; format: cell-based, human; conditions: for Kd: HEPM cells treated 18 hours with 100 pM TGF-β1
Description: (§1) HEPM cells were grown to confluence (1×10^5 cells/well) in 24-well Costar tissue culture plates. Prior to the binding assay, cells were pre-incubated in serum-free growth medium at 37° C. for 4 hours to allow for the dissociation of TGF-β from occupied cells surface receptors. The resulting monolayers were washed 2 times in binding buffer (Dulbecco's MEM+0.1% BSA+25 mM HEPES). 250 μl of binding buffer containing 0.5 μg/ml [^125 I]-iodoTGF-β1, (specific activity of 100 μCi/μg) together with increasing amounts of unlabeled TGF-β1 were added to duplicate wells. Steady state binding was carried out at 4° C. for 3 hours. After incubation cells were washed 3 times with cold binding buffer and solubilized in 200 μl of Triton solution (20 mM HEPES, 1% Triton X-100, 10% glycerol, 0.01% BSA, pH 7.4). Radioactivity was determined using a gamma spectrometer. Non-specific binding was determined in the presence of a 1,000-fold molar excess unlabeled TGF-β1.
Briefly, HEPM cells were treated with 100pM TGF-β1, for 18 hours, washed with serum-free medium, and incubated in fresh serum-free medium for 60 minutes to allow for the disassociation of residually bound TGF-β1. The radioreceptor assay described in Materials and Methods was used to assess the extent of receptor down-regulation in the treated cells relative to untreated control cells. […] The combined total receptor down-regulation observed was 57%.

[2] = tested on: HEPM cell-surface receptors for TGF-β; assay: Radioreceptor assay: [125I]-iodo-TGF-β1 in competition with unlabeled TGF-β1, Scatchard analysis; format: binding, human; conditions: comparison of growth stimulation and receptor occupancy, FIG. 6
Description: as §1
(§2) The radioreceptor assay described in Materials and Methods was used to characterize the affinity and number of cell-surface receptors for TGF-β on HEPM cells. Specific binding of [^125 I]-iodo-TGF-βin these assays was 20% of the total radioligand present. […] Half-maximal displacement of radioligand occurred at 100 pM (2.6 ng/ml) unlabeled TGF-β1. Competitive binding data were plotted according to the method of Scatchard (Scatchard, et al., 1947, Ann. NY Acad Sci 51:660-672) and the results are presented in FIG. 5. A distinctly curvilinear isotherm was obtained indicating the presence of at least two classes of binding sites on HEPM cells. […] Quantitative analysis determined that HEPM cells contain a total of 287,000 TGF-β receptors per cell (55,400 high affinity and 231,600 low affinity sites).

[3] = molecular target: T1, HEPM cell-surface receptors for TGF-β (Homo sapiens, UniProt Q03167); assay: as above; format: binding; conditions: for Kd: untreated HEPM cells, Scatchard two-site model
T1 construct: endogenous in cells; host or cells: HEPM (human embryonic palatal mesenchyme) cells, intact monolayers
T1 sequence (Q03167 21-851): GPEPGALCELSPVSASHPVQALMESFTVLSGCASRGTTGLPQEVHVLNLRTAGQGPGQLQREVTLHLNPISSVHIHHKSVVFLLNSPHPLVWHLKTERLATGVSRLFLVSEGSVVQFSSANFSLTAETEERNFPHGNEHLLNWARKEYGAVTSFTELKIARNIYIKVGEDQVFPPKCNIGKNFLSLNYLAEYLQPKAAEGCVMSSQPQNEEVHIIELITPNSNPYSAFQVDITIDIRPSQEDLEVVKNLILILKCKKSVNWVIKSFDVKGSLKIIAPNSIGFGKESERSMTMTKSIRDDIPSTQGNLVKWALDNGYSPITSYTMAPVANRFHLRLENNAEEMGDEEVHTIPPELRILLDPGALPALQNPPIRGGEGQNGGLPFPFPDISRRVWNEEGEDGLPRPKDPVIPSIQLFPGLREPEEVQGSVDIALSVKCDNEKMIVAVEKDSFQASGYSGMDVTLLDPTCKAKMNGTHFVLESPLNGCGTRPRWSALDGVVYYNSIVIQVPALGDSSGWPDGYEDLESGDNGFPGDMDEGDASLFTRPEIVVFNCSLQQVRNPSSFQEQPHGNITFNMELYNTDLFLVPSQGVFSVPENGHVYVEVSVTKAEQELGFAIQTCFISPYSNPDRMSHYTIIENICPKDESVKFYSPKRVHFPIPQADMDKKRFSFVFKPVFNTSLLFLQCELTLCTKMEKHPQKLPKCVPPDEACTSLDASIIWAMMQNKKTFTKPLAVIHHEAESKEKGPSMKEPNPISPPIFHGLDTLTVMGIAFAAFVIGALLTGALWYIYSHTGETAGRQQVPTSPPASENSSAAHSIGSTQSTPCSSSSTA
Description: as §1, §2

[4] = 100 pM TGF-β1, 18 hours, vs control cells

half-maximal displacement of radioligand ([3]; unlabeled TGF-β1 vs [125I]-iodo-TGF-β1, 4° C., 3 hours): 2.6 ng/mL
IC50 ([3]; unlabeled TGF-β1 vs [125I]-iodo-TGF-β1, 4° C., 3 hours, read-out: half-maximal displacement of radioligand / half-maximal receptor occupancy): 0.1 nM
Kd ([3]; read-out: kd, high-affinity (low capacity) site): 0.058 nM
Kd ([3]; read-out: kd, low-affinity (high capacity) site): 0.898 nM
Substance: TGF-β1: Transforming growth factor-Beta type 1; two identical disulfide linked subunits having molecular weights of 13,000; recombinant material used
high affinity binding sites in treated cells ([1]; 100 pM TGF-β1, 18 hours): 14,000 sites/cell
low affinity binding sites in treated cells ([1]; 100 pM TGF-β1, 18 hours): 108,800 sites/cell
combined total receptor down-regulation [1, 4]: 57%
down-regulation of the high affinity binding sites [1, 4]: 74%
down-regulation of the low affinity binding sites [1, 4]: 53%
Kd ([1]; read-out: kd, high affinity binding sites): 0.04 nM
Kd ([1]; read-out: kd, low affinity binding sites): 0.974 nM
receptors occupied when full biological response is obtained [2]: 20%
